Series [1] concerns Vero. The series can be described thus: cells. The class given is functional. The following applies: Chlorocebus sabaeus.
Series [2] addresses T1, Small ubiquitin-related modifier 1 (Homo sapiens, UniProt P63165). Briefly: inhibitors of SUMO1 peptide binding, dose response, biochemical, fluorescence polarization, uHTS hits (AID 624382). The conditions noted are these: read-out: IC50_Mean. The class given is functional. For orientation: Fluorescence polarisation rises when a labelled molecule tumbles more slowly, as on binding a larger partner.

In series [3] the target is T1, Small ubiquitin-related modifier 1. The series can be described thus: inhibitors of SUMO1 partner interactions, dose response, biochemical, FRET (AID 624383). Format: functional. The conditions noted are these: read-out: IC50_Mean.
Series [4] addresses T2, Low molecular weight phosphotyrosine protein phosphatase (Homo sapiens, UniProt P24666).
T2 sequence (P24666 whole entry): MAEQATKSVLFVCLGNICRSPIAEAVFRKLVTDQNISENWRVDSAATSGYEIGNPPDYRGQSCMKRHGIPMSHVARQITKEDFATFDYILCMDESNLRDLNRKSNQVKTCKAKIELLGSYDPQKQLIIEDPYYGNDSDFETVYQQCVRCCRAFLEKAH
Format: functional. The conditions noted are these: read-out: IC50_Mean.

Series [5] concerns the target T3, Replicative DNA helicase DnaB (Mycobacterium tuberculosis, UniProt P9WMR3).
T3 sequence (P9WMR3 whole entry): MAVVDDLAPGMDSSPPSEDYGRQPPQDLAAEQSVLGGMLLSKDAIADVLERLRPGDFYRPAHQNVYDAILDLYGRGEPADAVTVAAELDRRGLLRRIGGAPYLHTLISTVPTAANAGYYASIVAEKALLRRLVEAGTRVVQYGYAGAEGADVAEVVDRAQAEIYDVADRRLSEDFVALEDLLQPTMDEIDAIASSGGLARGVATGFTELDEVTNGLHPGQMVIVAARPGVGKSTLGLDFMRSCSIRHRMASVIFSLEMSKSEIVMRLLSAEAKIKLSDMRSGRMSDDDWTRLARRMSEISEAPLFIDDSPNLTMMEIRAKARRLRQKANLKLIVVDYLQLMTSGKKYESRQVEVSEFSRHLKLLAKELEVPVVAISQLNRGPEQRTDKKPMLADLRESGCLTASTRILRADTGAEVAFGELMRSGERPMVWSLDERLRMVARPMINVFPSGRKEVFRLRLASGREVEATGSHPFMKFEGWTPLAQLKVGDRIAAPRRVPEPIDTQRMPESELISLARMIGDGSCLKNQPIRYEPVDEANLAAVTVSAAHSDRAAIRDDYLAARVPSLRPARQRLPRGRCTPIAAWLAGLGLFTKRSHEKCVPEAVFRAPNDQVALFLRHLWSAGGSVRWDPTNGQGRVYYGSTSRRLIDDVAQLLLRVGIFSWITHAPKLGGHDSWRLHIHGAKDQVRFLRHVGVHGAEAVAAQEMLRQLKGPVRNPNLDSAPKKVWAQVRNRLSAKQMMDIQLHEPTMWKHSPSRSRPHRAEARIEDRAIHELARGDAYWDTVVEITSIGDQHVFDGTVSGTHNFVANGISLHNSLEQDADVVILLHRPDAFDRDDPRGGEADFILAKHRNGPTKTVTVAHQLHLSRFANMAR
The series can be described thus: DnaB intein splicing inhibitors, dose response, biochemical, cell-free fluorescence (AID 449749). Format: functional.

The target in series [6] is T4, Protein RecA (Mycobacterium tuberculosis, UniProt P9WHJ3).
T4 sequence (P9WHJ3 whole entry): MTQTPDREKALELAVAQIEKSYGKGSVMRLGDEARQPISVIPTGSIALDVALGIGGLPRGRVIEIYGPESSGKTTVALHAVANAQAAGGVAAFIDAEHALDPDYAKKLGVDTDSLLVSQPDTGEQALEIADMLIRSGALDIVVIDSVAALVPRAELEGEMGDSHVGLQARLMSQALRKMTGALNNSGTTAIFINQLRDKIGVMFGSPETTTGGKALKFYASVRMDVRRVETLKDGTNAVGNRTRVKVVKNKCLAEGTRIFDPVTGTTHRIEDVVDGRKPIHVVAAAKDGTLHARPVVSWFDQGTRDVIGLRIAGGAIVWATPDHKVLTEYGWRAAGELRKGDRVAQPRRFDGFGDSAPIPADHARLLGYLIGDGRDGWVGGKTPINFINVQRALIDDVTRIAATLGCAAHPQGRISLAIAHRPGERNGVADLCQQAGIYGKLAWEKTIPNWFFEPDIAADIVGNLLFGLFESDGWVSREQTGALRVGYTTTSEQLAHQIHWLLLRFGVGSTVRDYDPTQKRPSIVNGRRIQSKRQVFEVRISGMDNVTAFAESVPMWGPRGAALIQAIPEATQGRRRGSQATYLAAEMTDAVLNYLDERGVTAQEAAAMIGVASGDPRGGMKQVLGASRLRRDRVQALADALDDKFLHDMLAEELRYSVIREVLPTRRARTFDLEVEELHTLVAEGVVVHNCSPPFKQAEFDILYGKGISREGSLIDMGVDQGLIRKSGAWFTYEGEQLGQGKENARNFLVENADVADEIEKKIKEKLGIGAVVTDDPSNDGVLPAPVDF
Briefly: Fluorescence Cell-Free Homogeneous Dose Retest to Identify Inhibitors of RecA-Intein Splicing Activity. [Related pubchem assays (depositor defined):AID2097, AID2223, AID489010, AID492950]. The class given is functional.

For series [7], the target named is T5, Sentrin-specific protease 8 (Homo sapiens, UniProt Q96LD8).
T5 sequence (Q96LD8 whole entry): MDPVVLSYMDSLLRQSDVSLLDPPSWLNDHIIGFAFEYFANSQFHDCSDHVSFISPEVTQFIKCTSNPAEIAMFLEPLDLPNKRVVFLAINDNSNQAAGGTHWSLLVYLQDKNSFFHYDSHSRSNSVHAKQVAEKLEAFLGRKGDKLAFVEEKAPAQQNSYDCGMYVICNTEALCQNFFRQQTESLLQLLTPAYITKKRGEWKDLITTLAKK
Format: functional.

The target in series [8] is T5, Sentrin-specific protease 8. The class given is functional. This is another data set of the same source.
For series [9], the target named is Galanin receptor type 3 (Homo sapiens, UniProt O60755). Briefly: Fluorescence-based cell-based primary high throughput dose response assay to identify antagonists of the Galanin Receptor 3 (GalR3). Format: functional.
Sequence of Galanin receptor type 3 (O60755 whole entry): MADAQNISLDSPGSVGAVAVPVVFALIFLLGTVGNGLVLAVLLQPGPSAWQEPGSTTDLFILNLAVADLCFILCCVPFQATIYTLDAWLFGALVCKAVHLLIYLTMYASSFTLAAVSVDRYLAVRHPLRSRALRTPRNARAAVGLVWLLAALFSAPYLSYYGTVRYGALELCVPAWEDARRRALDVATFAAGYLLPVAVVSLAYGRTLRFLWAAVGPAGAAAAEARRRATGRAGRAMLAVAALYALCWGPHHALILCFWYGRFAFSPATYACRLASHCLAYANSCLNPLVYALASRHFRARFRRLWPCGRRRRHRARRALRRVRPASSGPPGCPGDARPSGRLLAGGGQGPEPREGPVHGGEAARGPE
Series [10] is described as follows: cells. Format: functional, cell-based. The conditions noted are these: HEK-CNG.
Series [11] addresses T6, Corticotropin-releasing factor receptor 2/Corticotropin-releasing factor-binding protein (Homo sapiens, UniProt P24387+Q13324).
T6 sequence (Q13324 whole entry): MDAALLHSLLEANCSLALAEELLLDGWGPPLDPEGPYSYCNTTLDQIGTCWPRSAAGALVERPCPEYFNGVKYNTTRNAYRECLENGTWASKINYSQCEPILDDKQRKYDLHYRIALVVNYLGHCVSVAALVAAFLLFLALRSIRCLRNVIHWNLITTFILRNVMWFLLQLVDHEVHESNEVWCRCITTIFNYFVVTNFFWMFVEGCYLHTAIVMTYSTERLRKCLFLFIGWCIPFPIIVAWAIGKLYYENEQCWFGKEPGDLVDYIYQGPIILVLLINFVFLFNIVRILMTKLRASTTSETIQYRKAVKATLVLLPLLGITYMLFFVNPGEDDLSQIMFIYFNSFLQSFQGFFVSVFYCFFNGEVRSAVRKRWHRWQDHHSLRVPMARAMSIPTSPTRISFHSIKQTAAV
T6 sequence (P24387 whole entry): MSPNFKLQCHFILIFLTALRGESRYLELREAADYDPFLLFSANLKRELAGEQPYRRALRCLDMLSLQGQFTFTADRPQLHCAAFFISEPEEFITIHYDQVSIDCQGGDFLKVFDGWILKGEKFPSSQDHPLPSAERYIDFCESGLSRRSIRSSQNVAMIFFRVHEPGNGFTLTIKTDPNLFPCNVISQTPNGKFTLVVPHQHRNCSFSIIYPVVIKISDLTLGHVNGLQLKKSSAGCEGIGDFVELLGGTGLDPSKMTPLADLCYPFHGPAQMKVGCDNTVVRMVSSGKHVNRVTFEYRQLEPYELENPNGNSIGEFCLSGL
The series can be described thus: Dose Response confirmation of uHTS hits for small molecule antagonists of the CRF-binding protein and CRF-R2 receptor complex. Format: functional. The following applies: read-out: IC50_Mean.

Series [12] deals with T6, Corticotropin-releasing factor receptor 2/Corticotropin-releasing factor-binding protein. The series can be described thus: activators of CRF receptor 2 with binding protein – uHTS hits, confirmation (AID 602473). The class given is functional. The following applies: read-out: EC50_Mean.
The nature of series [13]: CRF-BP/CRF-R2 complex antagonists, dose response, cell-based, uHTS hits, 384-well (AID 651639). The class given is functional, Homo sapiens. The following applies: read-out: IC50_Mean.
Series [14] deals with T7, Cytochrome P450 1A2 (Homo sapiens, UniProt P05177).
T7 sequence (P05177 whole entry): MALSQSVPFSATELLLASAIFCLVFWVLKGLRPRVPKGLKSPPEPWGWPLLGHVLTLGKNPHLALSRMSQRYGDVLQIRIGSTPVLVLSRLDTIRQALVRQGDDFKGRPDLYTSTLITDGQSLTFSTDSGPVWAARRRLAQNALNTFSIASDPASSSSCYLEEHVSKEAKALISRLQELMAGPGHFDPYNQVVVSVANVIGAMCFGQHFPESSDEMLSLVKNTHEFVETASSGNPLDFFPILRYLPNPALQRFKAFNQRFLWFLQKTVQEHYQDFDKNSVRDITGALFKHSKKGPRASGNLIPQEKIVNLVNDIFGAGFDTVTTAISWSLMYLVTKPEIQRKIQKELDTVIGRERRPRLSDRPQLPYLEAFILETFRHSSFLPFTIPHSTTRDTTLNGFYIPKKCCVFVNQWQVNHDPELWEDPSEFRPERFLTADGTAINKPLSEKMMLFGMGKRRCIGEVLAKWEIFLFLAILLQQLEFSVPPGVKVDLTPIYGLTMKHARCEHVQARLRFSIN

Series [15] concerns the target Cytochrome P450 3A4 (Homo sapiens, UniProt P08684).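 Note: CYP3A4 tested as one member of a cytochrome P450 panel screen.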
Series [16] concerns the target Cytochrome P450 2C9 (Homo sapiens, UniProt P11712).
Series [17] has as its target T8, Probable nicotinate-nucleotide adenylyltransferase (Staphylococcus aureus (strain N315), UniProt P65502). The class given is functional, Staphylococcus aureus subsp. aureus N315.
The target in series [18] is T8, Probable nicotinate-nucleotide adenylyltransferase. The class given is functional, Staphylococcus aureus subsp. aureus N315. The conditions noted are these: read-out: IC50_Mean.

One may read the CC50 as the concentration giving 50% cytotoxicity. As a reminder, the AC50 is the concentration giving half of the maximal activity seen.

Calls of active or inactive are those of the source. Bounds are passed on as bounds.

T8 sequence (P65502 whole entry): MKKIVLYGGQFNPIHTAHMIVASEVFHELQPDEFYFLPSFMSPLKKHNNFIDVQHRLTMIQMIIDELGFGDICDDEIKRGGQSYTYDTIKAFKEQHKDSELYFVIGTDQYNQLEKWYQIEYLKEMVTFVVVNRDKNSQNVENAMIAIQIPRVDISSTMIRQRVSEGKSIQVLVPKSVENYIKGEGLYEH
T1 sequence (P63165 whole entry): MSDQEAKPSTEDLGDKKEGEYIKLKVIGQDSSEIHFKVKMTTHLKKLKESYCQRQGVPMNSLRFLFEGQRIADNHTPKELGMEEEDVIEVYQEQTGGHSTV
Sequence of Cytochrome P450 3A4 (P08684 whole entry): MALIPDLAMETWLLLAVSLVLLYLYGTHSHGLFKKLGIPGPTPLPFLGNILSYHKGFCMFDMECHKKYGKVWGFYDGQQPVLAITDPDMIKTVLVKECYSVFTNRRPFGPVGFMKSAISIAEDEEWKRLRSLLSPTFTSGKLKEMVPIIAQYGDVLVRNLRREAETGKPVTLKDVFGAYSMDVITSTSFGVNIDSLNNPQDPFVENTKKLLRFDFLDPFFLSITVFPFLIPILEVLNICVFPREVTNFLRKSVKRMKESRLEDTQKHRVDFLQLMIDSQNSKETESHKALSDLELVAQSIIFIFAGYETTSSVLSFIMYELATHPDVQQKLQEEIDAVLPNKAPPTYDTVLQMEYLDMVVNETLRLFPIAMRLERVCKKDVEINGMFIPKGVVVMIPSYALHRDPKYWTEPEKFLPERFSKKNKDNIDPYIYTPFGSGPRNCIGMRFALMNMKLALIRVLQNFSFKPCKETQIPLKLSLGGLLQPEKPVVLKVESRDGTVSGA
Sequence of Cytochrome P450 2C9 (P11712 whole entry): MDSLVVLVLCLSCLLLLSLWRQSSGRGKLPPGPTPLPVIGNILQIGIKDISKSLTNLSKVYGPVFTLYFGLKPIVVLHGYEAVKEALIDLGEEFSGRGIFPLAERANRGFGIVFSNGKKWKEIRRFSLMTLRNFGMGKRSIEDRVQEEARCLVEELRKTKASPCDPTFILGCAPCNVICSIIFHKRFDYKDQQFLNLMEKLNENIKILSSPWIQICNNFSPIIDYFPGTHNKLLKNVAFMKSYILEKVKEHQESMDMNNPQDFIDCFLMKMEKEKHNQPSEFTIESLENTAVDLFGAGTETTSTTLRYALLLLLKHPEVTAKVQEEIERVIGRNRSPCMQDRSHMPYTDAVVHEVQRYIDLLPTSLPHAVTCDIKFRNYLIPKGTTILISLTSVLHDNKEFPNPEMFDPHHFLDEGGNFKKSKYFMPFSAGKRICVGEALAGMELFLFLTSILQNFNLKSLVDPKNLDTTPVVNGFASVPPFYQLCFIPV

As for `O=C(Nc1ccc2oc(=O)ccc2c1)c1ccc(-c2cccc([N+](=O)[O-])c2)o1`, the 50% cytotoxic concentration (CC50) in [1] was 8.41 µM (active). For the same compound, the IC50 in series [2] is > 66.6 µM (inactive); in series [3], 2.43 µM (active); in series [4] it was 25.5 µM (inactive).
With `CC1=NN(c2ccc(S(=O)(=O)O)cc2C)C(=O)C1`, the AC50 in [5] is 3.99 µM (active). Moreover, the EC50 in [6] was 4.57 µM (active). Further, the IC50 in [7] is 28 µM (active); in series [8], 21.8 µM (active).
As for `CC(=O)OCC[N+](C)(C)C.[O-][Cl+3]([O-])([O-])[O-]`, the IC50 in series [9] is 0.618 µM (active). The EC50 in [10] was > 29.9 µM (inactive).
In the case of `CCOc1cc(C)ccc1OCc1nnc(SCC(=O)c2cccc([N+](=O)[O-])c2)n1C`, the IC50 in [11] was 2.52 µM (active); in series [13], 2.11 µM (active). In addition, the EC50 in series [12] is > 53 µM (inactive). Further, the concentration at half-maximal activity (AC50) in [14] is 15.8 µM (inconclusive); in series [15], 1.41 µM (inconclusive); in series [16], “inconclusive”.
Turning to `Cc1cc(C(=O)CSc2nc(N)cc(O)n2)c(C)n1-c1ccc(OC(F)F)cc1`, the IC50 in series [9] is 2.9 µM (active). For the same compound, in series [10], the EC50 was > 29.9 µM (inactive).
For `CCN(CC)c1ccc(NC2CC(=O)N(CCc3ccc(OC)cc3)C2=O)cc1` (configuration not stated), the IC50 is > 100 µM (inactive) in series [7] and 45.2 µM (active) in [8].
As for `COc1ccccc1-n1c(SCc2cc(=O)oc3cc(O)ccc23)nc2ccccc2c1=O`, the IC50 is 15.2 µM (active) in series [17] and 40.2 µM (active) in [18].

These data come from ChEMBL document CHEMBL1201862, “PubChem BioAssay data set” (2004).
